Source: patent US20180024136A1, “Development of ABCG2-Sensitive Fluorescent Probe For Isolation of ABCG2low Neural Stem/Progenitor Cells” (National University of Singapore, priority 2015, published 2018)

Tests used:
[1] = Spectroscopic properties of CF library (absorbance, emission, quantum yield, extinction coefficient); type: physicochemical
Method: All the chemicals and solvents were purchased from Sigma Aldrich, Alfa Aesar, Fluka, MERCK, Tocris or Acros, and used without further purification. Normal phase purifications were carried out using Merck Silica Gel 60 (particle size: 0.040-0.063 mm, 230-400 mesh). Analytical characterization was performed on a HPLC-MS (Agilent-1200 series) with a DAD detector and a single quadrupole mass spectrometer (6130 series) with an ESI probe. ^1H-NMR and ^13C-NMR spectra were recorded on Bruker Avance 300 MHz NMR spectrometers, and chemical shifts are expressed in parts per million (ppm) and coupling constants are reported as a J value in Hertz (Hz). High resolution mass spectrometry (HRMS) data was recorded on a Micro mass VG 7035 (Mass Spectrometry Laboratory at National University of Singapore (NUS)). Spectroscopic and quantum yield data were measured on spectroscopic measurements, performed on a fluorometer and UV/VIS instrument, Synergy 4 of Bioteck Company. The slit width was 1 nm for both excitation and emission, and the data analysis was performed using GraphPrism 5.0.

Abcg2 [2] = assay: CDg13 staining of Abcg2 knockdown D-NS5 cells; type: cell-based, mouse; conditions: D-NS5, siAbcg2 versus controls, 1 hour staining
Method: FIGS. 9A-9D show gene expression of ABC transporters: (A) undifferentiated (NS5) and 3-days differentiated NS5 (D-NS5), (B) the mRNA expression of the indicated ABC transporters were analyzed by qRT-PCR using total RNA from control and Abcg2-targeted siRNA transfected D-NS5 cells (N=3), and (C) and (D) negative (−) control siRNA (siCon) and Abcg2-targeted siRNA (siAbcg2) treated D-NS5 cells were stained with CDg13 for 1 hour, representative cells image (C) and the intensity staining of CDg13 (D) are shown (N=3) (data were normalized by β-actin expression and represented as relative fold, all values are means±SEM, *, p<0.05; **, p<0.01, unpaired two-tailed Student's T-test was used to calculate statistical significance)(Bar in (C): 100 μm).
siRNAs targeted to mouse ABCG2 gene and non-targeted control (Santa Cruz) were transiently introduced to 2 days differentiated NS-5 cells by using RNAiMAX (Invitrogen). We used 20 nM of siRNA and 3 μl of RNAiMAX for transfecting one well of 12-well plate (70-80% confluence with cells). Transfection efficiency in the condition was more than 90% as measured by fluorescence non-targeted siRNA. The levels of RNA and their analysis were performed after 3 days of transfection.

human KB3-1 cells = assay: MTS viability assay on KB3-1 cells; type: cell-based; conditions: 48 h
ABCB1 = ABCB1 (Homo sapiens, UniProt P08183); assay: in vitro
ABCG2 [3] = target: T1, ABCG2 (Homo sapiens, UniProt Q9UNQ0); assay: Probe response to Ko143 in RPMI-8226 cells; type: cell-based; parameters: pre-treatment of RPMI-8226 cells with or without Ko143; endogenous in cells; host or cells: RPMI-8226; conditions: RPMI-8226, Ko143 pre-treatment, 1 μM probe
T1 sequence (Q9UNQ0 1-655): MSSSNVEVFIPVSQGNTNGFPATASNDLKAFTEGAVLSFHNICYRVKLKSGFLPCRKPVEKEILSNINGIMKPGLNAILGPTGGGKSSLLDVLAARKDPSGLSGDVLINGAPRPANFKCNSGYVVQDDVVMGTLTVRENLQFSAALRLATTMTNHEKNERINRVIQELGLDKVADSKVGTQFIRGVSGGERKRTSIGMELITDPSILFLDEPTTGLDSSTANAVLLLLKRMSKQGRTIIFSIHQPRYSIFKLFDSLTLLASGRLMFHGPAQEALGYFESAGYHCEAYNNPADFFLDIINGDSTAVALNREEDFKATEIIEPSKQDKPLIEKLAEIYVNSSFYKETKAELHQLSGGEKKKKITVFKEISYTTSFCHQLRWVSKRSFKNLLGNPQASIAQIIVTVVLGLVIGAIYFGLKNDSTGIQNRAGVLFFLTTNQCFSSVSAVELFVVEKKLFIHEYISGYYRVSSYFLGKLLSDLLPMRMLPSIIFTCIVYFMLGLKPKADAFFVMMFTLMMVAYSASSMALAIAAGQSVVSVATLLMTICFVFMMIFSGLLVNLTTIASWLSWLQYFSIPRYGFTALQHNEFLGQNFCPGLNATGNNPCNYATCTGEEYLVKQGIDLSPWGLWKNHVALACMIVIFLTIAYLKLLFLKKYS
Method: FIGS. 11A-11B show CDg13 has high sensitivity to ABCG2: (A) and (B) pre-treatment of RPMI-8226 cells with or without Ko143 were conducted for 30 minutes prior to staining with 1 μM of CDg13, pheophorbide A (PhA) or CDr3, fold change of fluorescence intensity from 3-6 independent experiments (A) (values are means±SEM, *, p<0.05; **, p<0.01), and representative fluorescence histogram of CDg13 and PhA (B) (unstained, 0, 100, 1,000 and 5,000 nM of Ko143 treated group is presented).

ABCB1, sequence (P08183 whole entry): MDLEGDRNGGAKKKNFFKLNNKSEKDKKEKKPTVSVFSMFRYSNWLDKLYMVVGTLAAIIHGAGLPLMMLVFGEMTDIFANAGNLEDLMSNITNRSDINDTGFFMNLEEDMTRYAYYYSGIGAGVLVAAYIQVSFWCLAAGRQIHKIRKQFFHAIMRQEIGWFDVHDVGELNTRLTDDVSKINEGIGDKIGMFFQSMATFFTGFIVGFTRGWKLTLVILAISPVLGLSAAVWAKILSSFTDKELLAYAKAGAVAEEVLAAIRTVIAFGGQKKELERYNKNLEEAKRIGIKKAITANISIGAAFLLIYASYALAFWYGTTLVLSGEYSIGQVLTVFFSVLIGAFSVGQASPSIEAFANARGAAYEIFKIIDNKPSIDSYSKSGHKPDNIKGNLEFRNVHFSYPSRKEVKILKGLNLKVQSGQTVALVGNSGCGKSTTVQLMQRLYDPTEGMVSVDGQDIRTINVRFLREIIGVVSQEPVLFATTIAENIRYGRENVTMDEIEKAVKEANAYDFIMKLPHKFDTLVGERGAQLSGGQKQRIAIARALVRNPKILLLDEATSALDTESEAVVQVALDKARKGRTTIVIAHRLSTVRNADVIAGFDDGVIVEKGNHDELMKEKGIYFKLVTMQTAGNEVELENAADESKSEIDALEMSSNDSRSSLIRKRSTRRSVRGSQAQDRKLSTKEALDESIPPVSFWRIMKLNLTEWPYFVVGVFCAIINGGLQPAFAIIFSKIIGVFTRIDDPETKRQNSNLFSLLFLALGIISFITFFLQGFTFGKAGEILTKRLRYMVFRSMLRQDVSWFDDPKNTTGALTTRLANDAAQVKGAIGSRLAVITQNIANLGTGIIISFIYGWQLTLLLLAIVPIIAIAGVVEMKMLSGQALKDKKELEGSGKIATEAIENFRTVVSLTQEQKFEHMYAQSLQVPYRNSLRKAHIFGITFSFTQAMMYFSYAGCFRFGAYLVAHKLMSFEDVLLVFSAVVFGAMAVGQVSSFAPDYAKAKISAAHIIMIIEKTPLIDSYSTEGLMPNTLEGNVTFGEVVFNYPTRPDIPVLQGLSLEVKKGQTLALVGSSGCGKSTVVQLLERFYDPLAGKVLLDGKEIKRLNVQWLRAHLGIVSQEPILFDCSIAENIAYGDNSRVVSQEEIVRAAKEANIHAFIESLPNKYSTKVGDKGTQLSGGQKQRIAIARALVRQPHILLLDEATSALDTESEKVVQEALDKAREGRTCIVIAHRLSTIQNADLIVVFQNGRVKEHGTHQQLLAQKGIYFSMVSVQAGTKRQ

SMILES: CCCCCCCCCN(CCCCCCCCC)C(=O)c1ccc(-c2c3cc(Cl)c(=O)cc-3oc3cc(O)c(Cl)cc23)cc1 [CDg13]
- Abs (nm) ([1]; 100 μM in ethanol): 520 nm
- Em (nm) ([1]; 100 μM in ethanol): 553 nm
- QY (Φ) ([1]; 100 μM in ethanol, reference fluorescein): 0.82
- extinction co-efficient ([1]; measured in ethanol): 40933.2 M⁻¹ cm⁻¹
- CDg13 staining increase by Abcg2 knockdown (Abcg2 [2]): around 2 fold
- toxicity (human KB3-1 cells; 1 to 10 μM): No toxicity was observed
- concentration at which cells started dying (human KB3-1 cells): 50 µM
- fold induction at 1 h, 10 µM (ABCB1): 1.5
- sensitivity of response to ABCG2 (ABCG2 [3]): higher sensitivity and produced more consistent data than PhA
